Article PMC11085308, “Design, Synthesis and Biological Activity of Novel Methoxy- and Hydroxy-Substituted N-Benzimidazole-Derived Carboxamides” (Molecules, 2024)
Values after ≈ are worked out from the molar mass of the structure shown.

Tests used:
[1] = DPPH free radical scavenging assay; details: compared to the standard BHT
Source text: (§1) The synthesized benzazole acrylonitrile derivatives were screened for their antioxidative potency by using in vitro assays, namely DPPH and ABTS as free radical scavenging assays and FRAP as a ferric reducing/antioxidant power assay.
(§2) The well-known antioxidant butylated hydroxytoluene (BHT) was used as a standard for comparing activity during testing. The DPPH assay is a standard commonly used test for the in vitro assessment of the antioxidant capacity of novel compounds by using their ability to scavenge the stable radical 1,1-diphenyl-picrylhydrazyl. […] Another test used to evaluate the antioxidative capacity of novel compounds was the ABTS test, by which their activity was evaluated by scavenging the stable radical 3-ethylbenzthiazoline-6-sulphonic acid.
Determination of the reducing activity of the stable radical 1,1-diphenyl-picrylhydrazyl (DPPH):
The reducing activity of the investigated systems was measured by the DPPH method according to previously described procedures with modifications to ensure their use on a 96-well microplate. Briefly, equal volumes of various concentrations of the tested molecules (dissolved in DMSO) were added to a solution of DPPH (final concentration of 50 µM in absolute ethanol). Ethanol and DMSO were used as control solutions in line with earlier reports. The radical scavenging activity was calculated using the following formula:[(A517 control − A517 compound)/A517 control] × 100.
The IC50 values were calculated from dose–response curves using nonlinear regression analysis with the GraphPad Prism 8 Ink. program. All measurements were carried out in triplicate.

[2] = tested on: HEK 293 (human embryonic kidney); test: Antiproliferative activity in vitro, MTT assay, 72 h, non-cancerous cell line; assay type: cell-based; details: HEK293, 72 h incubation, '-' with footnote a = did not show biological activity due to precipitation
Experimental: (§3) The experiments were carried out on four human cell lines which are derived from three cancer types: H460 (lung carcinoma), HCT 116 (colorectal carcinoma), MCF-7 (human breast cancer) and the non-cancerous cell line HEK 293 (human embryonic kidney).
(§4) The results are compared with the known antiproliferative agents doxorubicin and etoposide. […] Therefore, it is not clear whether the observed antiproliferative activity is due to the biological activity of the compounds or to precipitation.
(§5) The experiments were performed on four human cell lines, including HCT 116 (colon carcinoma), H 460 (lung carcinoma), MCF-7 (breast carcinoma) and HEK 293 (human embryonic kidney cells), in line with previously published experimental procedures. Briefly, the cells were grown in DMEM medium with the addition of 10% fetal bovine serum (FBS), 2 mM of L-glutamine, 100 U/mL of penicillin and 100 µg/mL of streptomycin and cultured as monolayers at 37 °C in a humidified atmosphere with 5% CO2. Cells were seeded at 2 × 10^3 cells/well in standard 96-well microtiter plates and left to attach for 24 h. The next day, a test compound was added in five serial 10-fold dilutions. The rate of cell growth was evaluated after 72 h of incubation with MTT assays. […] Each test was performed in quadruplicate in at least two individual experiments.

E. faecalis ATCC 29212 = test: Antibacterial activity in vitro, broth microdilution MIC; assay type: cell-based; details: for MIC E. faecalis ATCC 29212: broth microdilution, 16–24 h at 37 °C, unit inferred; for Selectivity of antibacterial activity, in words: against the Gram-positive strain E. faecalis
Experimental: (§6) The in vitro antibacterial activity of the synthesized benzamides 7–12 and 31–37 was evaluated against a panel of eight different bacterial strains. The Gram-positive bacterial strains comprised S. aureus, S. pneumoniae and E. faecalis, and the panel of Gram-negative bacteria consisted of E. coli, K. pneumoniae, A. baumannii and P. aeruginosa.
(§7) The selected bacterial strains were Gram-negative Escherichia coli (ATCC 25922) and Gram-positive Staphylococcus aureus (ATCC 29213) and S. Pneumoniae (ATCC 49619). The Saccharomyces cerevisiae ATCC 7752 strain was tested as a eukaryotic model organism. Synthesized compounds were prepared as 10 mM DMSO solutions and tested in a final concentration range of 100–0.2 µM [39].
(§8) Broth microdilution testing was performed according to CLSI (Clinical Laboratory Standards Institute) guidelines. The MIC (minimal inhibitory concentration) value was defined as the last tested concentration of a compound at which there is no visible growth of bacteria. Inoculums for each microorganism were prepared using the direct colony suspension method, where broth solutions that achieved turbidity equivalent to 0.5 McFarland standards were additionally diluted 100× with cation-adjusted MH media (Becton Dickinson). All test plates were incubated for 16–24 h at 37 °C.

A. baumannii ATCC 17978 = test: as above; assay type: cell-based; details: 16–24 h at 37 °C, unit inferred
Experimental: as §6, §7, §8

P. aeruginosa ATCC 27853 = test: as above; assay type: cell-based; details: 16–24 h at 37 °C, unit inferred
Experimental: as §6, §7, §8

E. coli ATCC 25922 = test: as above; assay type: cell-based, Escherichia coli; details: 16–24 h at 37 °C, unit inferred
Experimental: as §6, §7, §8

S. aureus ATCC 29213 = test: as above; assay type: cell-based, Staphylococcus aureus; details: for MIC S. aureus ATCC 29213: broth microdilution, 16–24 h at 37 °C, unit inferred
Experimental: as §6, §7, §8

[3] = tested on: MCF-7 (human breast cancer); test: Antiproliferative activity in vitro, MTT assay, 72 h; assay type: cell-based; details: MCF7, 72 h incubation
Experimental: as §3, §4, §5

[4] = tested on: HCT 116 (colorectal carcinoma); test: as above; assay type: cell-based; details: Homo sapiens, 72 h incubation, '-' with footnote a = did not show biological activity due to precipitation
Experimental: as §3, §4, §5

H460 (lung carcinoma) = test: as above; assay type: cell-based; details: Homo sapiens, NCI-H460, 72 h incubation
Experimental: as §3, §4, §5

[5] = Ferric reducing/antioxidant power (FRAP assay); parameters: FRAP: unit not given here; details: for FRAP: Fe2+ equivalents, triplicate; for FRAP ferric reducing/antioxidant power, in words: compared to the standard BHT
Experimental: as §1
The antioxidant activity of a substance is directly related to its reducing power.
The FRAP method was carried out according to previously described procedures with some modifications to make it compatible with an assay on a 96-well microplate. All results were expressed as Fe^2+ equivalents (Fe^2+ µmol). Ferrous sulphate (FeSO4 × 7H2O) was used to develop a standard curve of 20–2000 µmol/l for the FRAP test.

E. coli efflux del. = test: microbe, parasite or virus in culture; assay type: cell-based, Escherichia coli; details: for MIC E. coli efflux del.: broth microdilution, 16–24 h at 37 °C, unit inferred
Experimental: as §6, §7, §8

HCT 116 cells = test: Antioxidative activity assay in cells (ROS level, DCFH-DA fluorescence); assay type: cell-based, human; details: HCT 116, TBHP 100 µM plus 10 µM compound, 1 h, compared to NAC
Source text: We further selected compounds 9, 10, 32 and 36, showing quite pronounced antioxidant capacity in the DPPH and FRAP assays, in order to test their pro- and antioxidant activity in tumor cells. In order to test the antioxidant activity of the selected compounds in tumor cells (Figure 2), we treated HCT 116 cells with tert-butyl hydroperoxide (TBHP), a substance commonly used for inducing oxidative stress in cells and tissues, alone or in combination with a known antioxidative agent, N-acetyl-L-cysteine (NAC), or the tested compounds. We measured the formation of oxidative stress byproducts using 2′,7′-dichlorodihydrofluorescein diacetate (DCFH-DA).
For the antioxidative activity assay, 2.5 × 10^4 cells were seeded into 96-well microtiter plates and left to attach for 24 h. The next day, cells were washed with PBS and incubated in FBS-free DMEM medium with 25 µM of DCFH-DA fluorescence dye. After 45 min of incubation, the medium was discarded, and the cells were washed with PBS.
After the washing step, the cells were incubated with 100 µM of tert-butyl hydroperoxide (TBHP) alone or in combination with antioxidative agents (50 mM of N-Acetyl-L-cysteine-NAC or 10 µM of the tested compounds) in PBS for 1 h at 37 °C. DCFH-DA fluorescence was recorded on a microplate fluorimeter reader (Tecan) with an excitation beam of 485 nm, while the emitted fluorescence was collected at 535 nm. All tests were presented as the means of two independent measurements carried out in triplicate. One-way ANOVA with Tukey’s post hoc test was used for statistical analysis: *—p < 0.05; **—p < 0.01; ***—p < 0.001.
Figure 2 Antioxidative activity of selected systems. HCT 116 cells were treated with a combination of H2O2 (4 mM) and N-acetyl-L-cysteine (NAC, 10 mM) or the tested compounds (10 mM). Treatment with H2O2 (4 mM) alone was used as a control for ROS induction. The level of reactive oxygen species (ROS) was measured with the fluorescent dye DCFH-DA using a fluorimeter. The data presented here are the results of three independent measurements carried out in triplicate. A one-way ANOVA with Tukey’s post hoc test was used for statistical analysis, *** p < 0.001; ns—not significant.

[6] = ABTS radical scavenging assay; details: for IC50: head prints 'mM (* µM)', no cell carries an asterisk
Source text: as §1, §2
The total antioxidant activity (TEAC) method was adapted for use with a microplate reader. […] On the day of analysis, the ABTS•+ solution was diluted with PBS (pH7.4) to attain an absorbance of 0.700 ± 0.01 at 734 nm. This radical state remained stable for over two days when stored in the dark at room temperature. The standards and solutions of the tested compounds (10 µL) were mixed with the working ABTS•+ solution (200 µL) in microplate wells and incubated at room temperature for 5 min. The reduction in absorbance at 734 nm was measured using a µQuant (Biotec Inc., Auburn, CA, USA) microplate reader. The percentage scavenging of the test samples at each concentration was calculated using the following formula:[(Abscontrol − Abscompound)/Abscontrol] × 100
The IC50 values for each compound were calculated from dose–response curves. All measurements where carried out in triplicate with a linear regression analysis.

For `O=C(Nc1nc2ccccc2[nH]1)c1cc(O)c(O)c(O)c1` [Compound 32, N-(1H-benzo[d]imidazol-2-yl)-3,4,5-trihydroxybenzamide], which “DPPH free radical scavenging activity, in words” value [1] is on record?
Its value is “significantly improved”.

And the IC50 [2]?
The IC50 was 66 ± 1.7 µM.

And the MIC E. faecalis ATCC 29212 (E. faecalis ATCC 29212)?
The MIC E. faecalis ATCC 29212 was over 64 µM.

What about the MIC A. baumannii ATCC 17978 (A. baumannii ATCC 17978) of the same compound?
The MIC A. baumannii ATCC 17978 was over 64 µM.

What about the MIC P. aeruginosa ATCC 27853 (P. aeruginosa ATCC 27853) of the same compound?
The MIC P. aeruginosa ATCC 27853 was over 64 µM.

And the MIC E. coli ATCC 25922 (E. coli ATCC 25922)?
The MIC E. coli ATCC 25922 was over 64 µM.

What about the MIC S. aureus ATCC 29213 (S. aureus ATCC 29213) of the same compound?
The MIC S. aureus ATCC 29213 was over 64 µM.

And the IC50 [3]?
Its IC50 is 39.8 ± 1.4 µM.

And the IC50 [4]?
Its IC50 is over 100 µM.

What about the IC50 (H460 (lung carcinoma)) of the same compound?
The IC50 was over 100 µM.

And the FRAP [5]?
The FRAP was 3245.79 ± 16.38.

What about the “FRAP ferric reducing/antioxidant power, in words” value [5] of the same compound?
The value was “excellent in vitro antioxidant activity”.

And the melting point?
Its melting point is 230 to 234 °C.

And the MIC E. coli efflux del. (E. coli efflux del.)?
Its MIC E. coli efflux del. is over 64 µM.

What about the “Level of ROS in cells under induced oxidative stress” value (HCT 116 cells) of the same compound?
The value was “reducing the level of ROS in the cells”.

What does the source list for `Cn1c(NC(=O)c2ccc(O)cc2O)nc2cc(C#N)ccc21` [Compound 35, N-(5-cyano-1-methyl-1H-benzo[d]imidazol-2-yl)-2,4-dihydroxybenzamide]?
IC50 [2]: 33.5 ± 6.5 µM; Selectivity of antibacterial activity, in words (E. faecalis ATCC 29212): selective antibacterial activity; MIC E. faecalis ATCC 29212 (E. faecalis ATCC 29212): 16 µM (≈ 4.93 µg/mL); MIC A. baumannii ATCC 17978 (A. baumannii ATCC 17978): > 64 µM; MIC P. aeruginosa ATCC 27853 (P. aeruginosa ATCC 27853): > 64 µM; IC50 [6]: 0.19 ± 0.04 mM; MIC E. coli ATCC 25922 (E. coli ATCC 25922): > 64 µM; MIC S. aureus ATCC 29213 (S. aureus ATCC 29213): > 64 µM; IC50 [3]: 8.7 ± 1.5 µM; IC50 [4]: 10 ± 1.6 µM; IC50 (H460 (lung carcinoma)): > 100 µM; FRAP [5]: 278.61 ± 3.28; melting point: 273 to 275 °C; MIC E. coli efflux del. (E. coli efflux del.): 64 µM (≈ 19.7 µg/mL)

Which results are given for `CCCCCCn1c(NC(=O)c2cc(O)c(O)c(O)c2)nc2cc(C#N)ccc21` [Compound 37, N-(5-cyano-1-hexyl-1H-benzo[d]imidazol-2-yl)-3,4,5-trihydroxybenzamide]?
DPPH free radical scavenging activity, in words [1]: significantly improved; IC50 [2]: 37.9 ± 0.4 µM; MIC (E. faecalis ATCC 29212; Enterococcus faecalis, ATCC29212, read-out: MIC E. faecalis): 16 µM (≈ 6.31 µg/mL); Selectivity of antibacterial activity, in words (E. faecalis ATCC 29212): selective antibacterial activity; MIC E. faecalis ATCC 29212 (E. faecalis ATCC 29212): 16 µM (≈ 6.31 µg/mL); MIC A. baumannii ATCC 17978 (A. baumannii ATCC 17978): > 64 µM; MIC P. aeruginosa ATCC 27853 (P. aeruginosa ATCC 27853): > 64 µM; IC50 [6]: 0.002 ± 0.0001 mM; ABTS antioxidative activity, in words ([6]; in comparison to the standard BHT): pronounced antioxidative activity; MIC E. coli ATCC 25922 (E. coli ATCC 25922): > 64 µM; MIC (S. aureus ATCC 29213; Staphylococcus aureus, ATCC29213, read-out: MIC S. aureus): 16 µM (≈ 6.31 µg/mL); MIC S. aureus ATCC 29213 (S. aureus ATCC 29213): 16 µM (≈ 6.31 µg/mL); IC50 [3]: 38.2 ± 3.2 µM; IC50 [4]: 37.8 ± 6 µM; IC50 (H460 (lung carcinoma)): 47 ± 8.7 µM; FRAP [5]: 2780.81 ± 15.12; FRAP ferric reducing/antioxidant power, in words [5]: excellent in vitro antioxidant activity; melting point: 290 to 294 °C; MIC (E. coli efflux del.; Escherichia coli, read-out: MIC E. coli efflux del.): 16 µM (≈ 6.31 µg/mL); MIC E. coli efflux del. (E. coli efflux del.): 16 µM (≈ 6.31 µg/mL)
